Reference: ChEMBL document CHEMBL5230155, “Recent contributions of quinolines to antimalarial and anticancer drug discovery research” (Eur J Med Chem, 2021)
In brackets after ≈: the same amount, converted by molar mass.

Experiments:
[1] = test system: Plasmodium falciparum; test: microbe, parasite or virus in culture; conditions: NF54
Description: Antimalarial activity against CQ-sensitive Plasmodium falciparum NF54

[2] = biological target: Hepatocyte growth factor receptor (Homo sapiens, UniProt P08581); test: Inhibition of c-Met (unknown origin)
[3] = test system: HCT-116; test: Cytotoxicity against human HCT-116 cells; assay type: functional, cell-based
[4] = test system: HepG2; test: Cytotoxicity against human HepG2 cells; assay type: functional, cell-based; conditions: Homo sapiens, HepG2
[5] = test system: Plasmodium falciparum; test: Antimalarial activity against CQ-resistant Plasmodium falciparum W2; assay type: functional, organism-based
[6] = test system: Plasmodium falciparum; test: Antimalarial activity against CQ-sensitive Plasmodium falciparum 3D7; assay type: functional, organism-based
[7] = test system: Plasmodium falciparum; test: Antimalarial activity against CQ-resistant Plasmodium falciparum K1; assay type: functional, organism-based
[8] = test system: MCF7; test: Antiproliferative activity against human MCF7 cells; assay type: functional, cell-based; conditions: Homo sapiens, MCF7
[9] = test system: Plasmodium falciparum; test: microbe, parasite or virus in culture
Description: Antimalarial activity against Plasmodium falciparum

[10] = test system: Plasmodium falciparum; test: Antimalarial activity against CQ-sensitive Plasmodium falciparum D6; assay type: functional, organism-based
[11] = biological target: Cathepsin B (Homo sapiens) (UniProt P07858); test: Inhibition of human cathepsin B exopeptidase activity at 50 uM relative to control
[12] = test system: HeLa; test: Antiproliferative activity against human HeLa cells; assay type: functional, cell-based

Sequence of Hepatocyte growth factor receptor (P08581 whole entry): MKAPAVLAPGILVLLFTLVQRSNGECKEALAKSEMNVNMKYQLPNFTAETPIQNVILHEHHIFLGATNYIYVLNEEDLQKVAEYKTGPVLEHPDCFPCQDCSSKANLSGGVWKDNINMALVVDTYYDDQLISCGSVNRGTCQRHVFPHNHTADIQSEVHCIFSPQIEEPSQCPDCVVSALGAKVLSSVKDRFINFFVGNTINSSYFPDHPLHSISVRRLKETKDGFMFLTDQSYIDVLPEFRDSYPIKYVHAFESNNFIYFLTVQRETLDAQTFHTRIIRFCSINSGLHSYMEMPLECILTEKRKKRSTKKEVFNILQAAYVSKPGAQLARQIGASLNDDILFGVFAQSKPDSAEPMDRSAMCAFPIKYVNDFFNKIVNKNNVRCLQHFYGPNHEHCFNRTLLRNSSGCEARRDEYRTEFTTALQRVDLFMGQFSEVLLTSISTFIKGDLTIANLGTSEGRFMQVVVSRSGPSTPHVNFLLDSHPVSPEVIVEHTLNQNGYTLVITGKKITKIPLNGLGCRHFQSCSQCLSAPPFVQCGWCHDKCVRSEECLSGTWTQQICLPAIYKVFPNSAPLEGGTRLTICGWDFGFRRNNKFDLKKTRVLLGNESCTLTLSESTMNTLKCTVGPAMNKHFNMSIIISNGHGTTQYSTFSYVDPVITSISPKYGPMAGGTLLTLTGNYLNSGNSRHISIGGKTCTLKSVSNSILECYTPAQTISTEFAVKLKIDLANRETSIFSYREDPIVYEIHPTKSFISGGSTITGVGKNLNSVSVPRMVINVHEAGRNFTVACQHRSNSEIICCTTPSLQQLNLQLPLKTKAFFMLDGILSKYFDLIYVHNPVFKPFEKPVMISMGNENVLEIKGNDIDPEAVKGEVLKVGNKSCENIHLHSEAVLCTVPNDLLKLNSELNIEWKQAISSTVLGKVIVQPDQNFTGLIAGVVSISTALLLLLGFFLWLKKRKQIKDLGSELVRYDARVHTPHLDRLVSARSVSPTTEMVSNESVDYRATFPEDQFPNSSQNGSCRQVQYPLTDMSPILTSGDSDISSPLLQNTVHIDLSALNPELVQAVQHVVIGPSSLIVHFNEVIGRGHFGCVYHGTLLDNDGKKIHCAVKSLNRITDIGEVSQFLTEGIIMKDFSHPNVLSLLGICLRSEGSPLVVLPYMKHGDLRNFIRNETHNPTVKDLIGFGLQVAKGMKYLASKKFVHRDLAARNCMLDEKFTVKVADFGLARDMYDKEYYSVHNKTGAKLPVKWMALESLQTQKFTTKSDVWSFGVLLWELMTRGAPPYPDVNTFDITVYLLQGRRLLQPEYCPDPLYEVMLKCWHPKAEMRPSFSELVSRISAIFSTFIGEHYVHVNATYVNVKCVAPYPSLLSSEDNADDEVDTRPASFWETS

COc1ccc(C2CN3CCC2CC3[C@H](O)c2ccnc3ccc(OC)cc23)cc1 (mixture of isomers)
IC50 [1]: 5 nM

COc1cc2nccc(Oc3ccc(NC(=O)C4(C(=O)Nc5c(F)cc(F)cc5F)CC4)cc3)c2cc1Oc1ccc(N)cn1
IC50 [2]: 19 nM

CN(C)C/C=C/C(=O)Nc1cc2c(Nc3ccc(F)c(Cl)c3)ncnc2cc1O[C@H]1CCOC1 [AFATINIB]
IC50 [3]: 5.3 µg/mL (≈ 10.9 µM) | IC50 [4]: 5.3 µg/mL

O=C1c2cccc(N3CCOCC3)c2C(=O)N1CCCCCCNc1ccnc2cc(Cl)ccc12
IC50 [5]: 6 nM

CC(C)c1ccc(-c2cncn2CCNc2ccnc3cc(Cl)ccc23)cc1
IC50 [6]: 79 nM | IC50 [7]: 290 nM

COc1ccc2nccc([C@@H](O)C3CC4CCN3CC4c3ccc(C(F)(F)F)cc3)c2c1 (mixture of isomers)
IC50 [1]: 5 nM

C#Cc1ccc(-c2cn(CCNc3ccnc4cc(Cl)ccc34)nn2)cc1
IC50 [1]: 140 nM | IC50 [7]: 160 nM

CCN(CC)c1ccc2c(c1)C(=O)N(CCC(=O)NCCNc1ccnc3cc(Cl)ccc13)C2=O
IC50 [5]: 97 nM

Cc1ccc(S(=O)(=O)Oc2ccc(Cl)c3cccnc23)cc1
IC50 [8]: 1380 nM

CN(C)CCNCc1ccc(-c2cc(-c3ccc(CNCCN(C)C)cc3)c3ccccc3n2)cc1
IC50 [5]: 340 nM | IC50 [6]: 32 nM | IC50 [4]: 3100 nM

O=C(NNC(=S)Nc1ccc([N+](=O)[O-])cc1)c1cc(-c2ccc(F)cc2F)nc2ccc(F)cc12
IC50 [9]: 0.1 µg/mL (≈ 0.201 µM)

CCOC(=O)C(C#N)C(=O)c1cc(/C=C/c2ccc(N(C)C)cc2)nc2ccc(Br)cc12 (stereo not drawn)
IC50 [3]: 7.7 µg/mL (≈ 15.6 µM) | IC50 [4]: 7.7 µg/mL

CCCCCCOc1c(OC)cc(NC(C)CCCN)c2nc(C(C)(C)C)ccc12 (stereo not drawn)
IC50 [5]: 0.022 µg/mL | IC50 [10]: 0.02 µg/mL

CC1(C)CC(NCc2cc3cccc(Cl)c3nc2N2CCCC2)CCO1 (stereo not drawn)
IC50 [1]: 24 nM

OCc1cc(-c2cn(-c3ccc(Cl)cc3)nc2-c2ccccc2)nc2ccccc12
IC50 [9]: 0.092 µg/mL (≈ 0.223 µM)

Cc1ccc2nc(/C=C/c3ccc(N(C)C)cc3)cc(C(=O)O)c2c1
IC50 [3]: 7.7 µg/mL (≈ 23.2 µM) | IC50 [4]: 7.7 µg/mL

O=C1c2ccc(N3CCN(CCO)CC3)cc2C(=O)N1CCCCCCNc1ccnc2cc(Cl)ccc12
IC50 [5]: 6 nM

Cn1cc(-c2ccc3nnc(C(F)(F)c4ccc5ncccc5c4)n3n2)cn1 [JNJ-38877605]
IC50 [2]: 1.7 nM

O=C(NNC(=S)Nc1cccc(Cl)c1)c1cc(-c2ccccc2Cl)nc2ccccc12
IC50 [9]: < 0.3 µg/mL

CN(C)c1ccc(/C=C/c2cc(C(=O)O)c3cc(Br)ccc3n2)cc1
IC50 [3]: 7.7 µg/mL (≈ 19.4 µM) | IC50 [4]: 7.7 µg/mL

COCCCNC(=O)c1cc([N+](=O)[O-])c2cccnc2c1O
inhibition [11]: 19.4%

Cc1cc(S(=O)(=O)c2ccccc2[N+](=O)[O-])c2ccccc2n1
IC50 [8]: 1380 nM

Cc1c(Cl)ccc2cc(/C=C/C(=O)c3cccc(Br)c3)c(Cl)nc12
IC50 [5]: < 50 nM | IC50 [10]: < 50 nM

Cc1c(Cl)ccc2cc(/C=C/C(=O)c3csc(Cl)c3)c(Cl)nc12
IC50 [5]: < 50 nM | IC50 [10]: < 50 nM

COc1cccc(NC(=S)NNC(=O)c2cc(-c3ccc(C(F)(F)F)cc3)nc3ccc(F)cc23)c1
IC50 [9]: 0.1 µg/mL (≈ 0.194 µM)

N=C(N=C(N)N)SCCCCNc1ccnc2cc(Cl)ccc12
IC50 [5]: 430 nM | IC50 [10]: 610 nM

FC(F)(F)c1ccc(-c2cncn2CCNc2ccnc3cc(Cl)ccc23)cc1
IC50 [6]: 79 nM | IC50 [7]: 290 nM

CCCCCCCOc1c(OC)cc(NC(C)CCCN)c2nc(C(C)(C)C)ccc12 (stereo not drawn)
IC50 [5]: 0.022 µg/mL | IC50 [10]: 0.02 µg/mL

O=C(O)c1cc(-c2ccccc2)nc2ccc(Cl)cc12
IC50 [9]: 0.12 µg/mL (≈ 0.423 µM)

COc1ccc(Nc2ccnc3cc(-c4ccc(S(=O)(=O)N5CCN(C)CC5)cc4)ccc23)cc1Cl
EC50 [10]: 12 nM

Cc1cc(C)c(S(=O)(=O)Oc2ccc(Cl)c3cccnc23)c(C)c1
IC50 [8]: 1380 nM

CC(C)NC(=O)c1cc([N+](=O)[O-])c2cccnc2c1O
inhibition [11]: 19.4%

C=C[C@@H]1CN2CC[C@@H]1C[C@@H]2[C@@H](O)c1ccnc2ccc(OC)cc12
IC50 [1]: 122 nM

O=C1c2ccc(N3CCN(CCO)CC3)cc2C(=O)N1CCCCNc1ccnc2cc(Cl)ccc12
IC50 [5]: 6 nM

COc1cc2nccc(Oc3ccc(NC(=O)C4(C(=O)Nc5ccc(F)cc5)CC4)cc3)c2cc1O
IC50 [2]: 19 nM

O=C1c2ccc(N3CCOCC3)cc2C(=O)N1CCCCCCNc1ccnc2cc(Cl)ccc12
IC50 [5]: 6 nM

OCc1cc(-c2cn(-c3ccc(Cl)cc3Cl)nc2-c2ccccc2)nc2ccccc12
IC50 [9]: 0.036 µg/mL (≈ 0.0807 µM)

O=C(NNC(=S)Nc1cc(Cl)cc(Cl)c1)c1cc(-c2ccc(F)cc2F)nc2cc(Cl)c(F)cc12
IC50 [9]: 0.1 µg/mL (≈ 0.18 µM)

Cc1ccc(NC(=S)NNC(=O)c2c(C)nc3ccccc3c2C)cc1
IC50 [9]: 0.02 µg/mL (≈ 0.0549 µM)

Cc1ccc2nc(-c3cn(-c4ccc(Cl)cc4)nc3-c3ccccc3)cc(C(=O)NCCCN(C)C)c2c1
IC50 [9]: 0.0879 µg/mL (≈ 0.168 µM)

Cc1ccsc1-c1cncn1CCNc1ccnc2cc(Cl)ccc12
IC50 [6]: 79 nM | IC50 [7]: 290 nM

Cc1cc(S(=O)(=O)c2ccc(C#N)cc2)c2ccccc2n1
IC50 [8]: 1380 nM

Cc1c(Cl)ccc2cc(/C=C/C(=O)c3ccc(Br)s3)c(Cl)nc12
IC50 [5]: < 50 nM | IC50 [10]: < 50 nM

CCCCCOc1c(OC)cc(NC(C)CCCN)c2nc(C(C)(C)C)ccc12 (stereo not drawn)
IC50 [5]: 0.022 µg/mL | IC50 [10]: 0.02 µg/mL

N#CN=C(NCCCCCCOc1ccc(Cl)cc1)Nc1ccncc1 [CHS-828]
IC50 [12]: 40 nM

CC(C)NC(=S)NNC(=O)c1cc(-c2ccccc2Cl)nc2ccccc12
IC50 [9]: < 0.3 µg/mL

CCCCCCCCOc1c(OC)cc(NC(C)CCCN)c2nc(C(C)(C)C)ccc12 (stereo not drawn)
IC50 [5]: 0.022 µg/mL | IC50 [10]: 0.02 µg/mL

O=C(NNC(=S)Nc1ccccc1)c1cc(-c2c(F)cccc2F)nc2ccc(C(F)(F)F)cc12
IC50 [9]: 0.1 µg/mL (≈ 0.199 µM)

O=C(N/N=C/c1cc(O)ccc1O)c1ccc(Nc2ccnc3ccccc23)cc1
IC50 [4]: 27300 nM

O=C(NCCO)c1cc([N+](=O)[O-])c2cccnc2c1O
inhibition [11]: 19.4%

Cc1c(Cl)ccc2cc(/C=C/C(=O)c3ccc(Cl)cc3)c(Cl)nc12
IC50 [5]: < 50 nM | IC50 [10]: < 50 nM

O=C(NC1CCCCC1)c1cc([N+](=O)[O-])c2cccnc2c1O
inhibition [11]: 19.4%

COc1ccccc1NC(=S)NNC(=O)c1cc(-c2ccccc2Cl)nc2ccccc12
IC50 [9]: < 0.3 µg/mL

CC(C)(C)c1cncn1CCNc1ccnc2cc(Cl)ccc12
IC50 [6]: 79 nM | IC50 [7]: 290 nM

O=C(/C=C/C(=O)Nc1cccc(F)c1)NCCCCNc1cc(C(F)(F)F)nc2c(C(F)(F)F)cccc12
IC50 [6]: 2900 nM

O=C(NCc1ccc(F)cc1)c1cc([N+](=O)[O-])c2cccnc2c1O
inhibition [11]: 19.4%

Clc1ccc2c(NCCn3cncc3C3CCCC3)ccnc2c1
IC50 [6]: 79 nM | IC50 [7]: 290 nM

C=C[C@H]1CN2CC[C@H]1C[C@H]2[C@H](O)c1ccnc2ccc(OC)cc12 [QUININE]
IC50 [9]: 0.26 µg/mL (≈ 0.801 µM) | IC50 [1]: 22 nM

O=C1c2ccc(N3CCN(CCO)CC3)cc2C(=O)N1CCCNc1ccnc2cc(Cl)ccc12
IC50 [5]: 6 nM

OCCNCCNc1ccnc2cc(Cl)ccc12
IC50 [5]: 305 nM | IC50 [6]: 18.9 nM

CN(C)c1ccc(/C=C/c2cc(-c3nnc(N)s3)c3cc(Br)ccc3n2)cc1
IC50 [3]: 7.7 µg/mL (≈ 17 µM) | IC50 [4]: 7.7 µg/mL

O=C(NNC(=S)NC1CCCCC1)c1cc(-c2ccccc2Cl)nc2ccccc12
IC50 [9]: < 0.3 µg/mL

C#Cc1ccc(-c2cn(CCNc3ccnc4cc(Cl)ccc34)nn2)cc1F
IC50 [1]: 140 nM | IC50 [7]: 160 nM

Cc1nc2ccccc2c(C)c1C(=O)NNC(=S)Nc1ccccc1
IC50 [9]: 0.02 µg/mL (≈ 0.0571 µM)

O=C(NNC(=S)Nc1ccc([N+](=O)[O-])cc1)c1cc(-c2ccccc2Cl)nc2ccccc12
IC50 [9]: < 0.3 µg/mL

O=C(NNC(=S)Nc1ccc(Cl)cc1Cl)c1cc(-c2ccccc2Cl)nc2ccccc12
IC50 [9]: < 0.3 µg/mL

Cc1c(Cl)ccc2cc(/C=C/C(=O)c3ccccc3Br)c(Cl)nc12
IC50 [5]: < 50 nM | IC50 [10]: < 50 nM

[2H]c1ccc2cc(C(F)(F)c3nnc4ccc(-c5cnn(C)c5)nn34)ccc2n1
IC50 [2]: 2.6 nM

O=C(NCc1ccccc1)c1cc([N+](=O)[O-])c2cccnc2c1O
inhibition [11]: 19.4%

COc1cc2nccc(Oc3ccc(NC(=O)C4(C(=O)Nc5ccc(F)cc5)CC4)cc3)c2cc1OC(=O)c1ccc([N+](=O)[O-])cc1
IC50 [2]: 19 nM

COc1ccc2nc(-c3ccccc3)cc(C(=O)O)c2c1
IC50 [9]: 0.12 µg/mL (≈ 0.43 µM)

Cc1cccc2cc(CNC3CCOC(C)(C)C3)c(N3CCCC3)nc12 (stereo not drawn)
IC50 [1]: 22 nM | IC50 [7]: 173 nM

C#Cc1ccc(-c2cn(CCNc3ccnc4cc(Cl)ccc34)nn2)c(F)c1
IC50 [1]: 140 nM | IC50 [7]: 160 nM

CCCCNC(=O)c1cc([N+](=O)[O-])c2cccnc2c1O
inhibition [11]: 19.4%

O=C(NNC(=S)Nc1c(F)cccc1F)c1cc(-c2ccccc2Br)nc2c(Cl)cc(C(F)(F)F)cc12
IC50 [9]: 0.1 µg/mL (≈ 0.162 µM)
